Series [1] concerns Puccinia recondita f. Sp. Tritici. In words: Puccinia recondita f. sp. tritici / wheat / leaf disc curative (brown rust). Type of series: in vivo. The note with it: foliar, 144 h, 200 ppm in the applied formulation, wheat leaf segments cv. Kanzler, applied 1 day after inoculation, assessed 6 to 8 days after application, vs untreated, read-out: disease control. An outline of the steps: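 Segments of wheat (cultivar Kanzler) sit on agar and are spore-inoculated first; after one day in darkness at 19° C and 75% RH the diluted formulated compound is sprayed on. A 12 h photoperiod follows at the same temperature and humidity before disease is scored against untreated controls.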

Another series concerns Uromyces viciae-Fabae. Description: Uromyces viciae-fabae / field bean / leaf disc preventative (faba-bean rust). The class given is in vivo. The note with it: foliar, 288 h, 100 ppm in the applied formulation, field bean leaf discs, inoculated two hours after application, assessed 12 days after application, vs untreated, read-out: disease control. The procedure: Leaf disks or leaf segments of various plant species are cut from plants grown in a greenhouse. The cut leaf disks or segments are placed in multiwell plates (24-well format) onto water agar. The leaf disks are sprayed with a test solution before (preventative) or after (curative) inoculation. Compounds to be tested are prepared as DMSO solutions (max. 10 mg/ml) which are diluted to the appropriate concentration with 0.025% Tween20 just before spraying. The inoculated leaf disks or segments are incubated under defined conditions (temperature, relative humidity, light, etc.) according to the respective test system. A single evaluation of disease level is carried out 3 to 14 days after inoculation, depending on the pathosystem. Percent disease control relative to the untreated check leaf disks or segments is then calculated.
Field bean leaf discs are placed on water agar in multiwell plates (96-well format) and 10 μl of the formulated test compound diluted in acetone and a spreader pipetted onto the leaf disc. Two hours after application leaf discs are inoculated by spraying a spore suspension on the lower leaf surface. The leaf discs are incubated in a climate cabinet at 22° C. with 18 hour day and 70% relative humidity. The activity of a compound is assessed as percent disease control compared to untreated when an appropriate level of disease damage appears in untreated check leaf disks (12 days after application).
The following compounds at 100 ppm in the applied formulation give at least 80% disease control in this test when compared to untreated control leaf discs under the same conditions, which show extensive disease development.

Another series concerns Phakopsora pachyrhizi. In words: Phakopsora pachyrhizi / soybean / leaf disc preventative (Asian soybean rust). The note with it: foliar, 288 h, 200 ppm in the applied formulation, soybean leaf disks, inoculated one day after application, assessed 12 to 14 days after application, vs untreated, read-out: disease control. The class given is in vivo. In short, it runs like this: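 Read-out is percent disease control relative to untreated check discs, assessed once untreated discs show adequate disease, 12 to 14 days after application. Compounds, tested at 200 ppm in the applied formulation, are sprayed onto soybean leaf discs one day before inoculation with a spore suspension.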

Series [2] relates to Puccinia recondita f. Sp. Tritici. In words: Puccinia recondita f. sp. tritici / wheat / leaf disc preventative (brown rust). The class given is in vivo. To be noted: foliar, 168 h, 200 ppm in the applied formulation, wheat leaf segments cv. Kanzler, preventative, inoculated 1 day after application, assessed 7 to 9 days after application, vs untreated, read-out: disease control. In short, it runs like this:
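Preventative leaf-segment test: spray application of diluted formulated compound on wheat cv. Kanzler, spore inoculation after 1 day. Percent control relative to untreated segments rated 7 to 9 days post-application, with incubation at 19° C, 75% relative humidity, 12 h photoperiod.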

Series [3] has as its system Glomerella Lagenarium (Colletotrichum Lagenarium). Description: Glomerella lagenarium (Colletotrichum lagenarium) liquid culture / cucumber / preventative (anthracnose). Type of series: cell-based. The note with it: Colletotrichum orbiculare; 20 ppm in the applied formulation; liquid culture in PDB, 24° C., inhibition of growth measured photometrically 3 to 4 days after application, vs untreated; read-out: disease control. An outline of the steps:
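Conidia from cryogenic storage were mixed into potato dextrose broth. This was added to compound diluted from DMSO into 0.025% Tween20, tested at 20 ppm. Plates were incubated in the dark at 24 °C and 96% relative humidity, and growth was read photometrically after 2–7 days as % activity versus untreated check.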

With `FC(F)(F)c1nc(-c2ccc(Cn3nncc3-c3ccccc3)cc2)no1` [Compound 1.3, 3-[4-[(5-phenyltriazol-1-yl)methyl]phenyl]-5-(trifluoromethyl)-1,2,4-oxadiazole], the pest or weed control at 200 ppm (in series [1]; with Phakopsora pachyrhizi; in series [2]) was not below 80% in each case. Also, the pest or weed control at 100 ppm in the series with Uromyces viciae-Fabae is not below 80%. In addition, in series [3], the inhibition of growth at 20 ppm is not below 80%.

As a reminder, the melting point is the temperature, or range, at which the solid turns liquid. `FC(F)(F)c1nc(-c2ccc(Cn3cc(-c4ccsc4)nn3)cc2)no1` [Compound 1.8, 3-[4-[[4-(3-thienyl)triazol-1-yl]methyl]phenyl]-5-(trifluoromethyl)-1,2,4-oxadiazole] had a melting point of 160.2 to 163.9 °C. The pest or weed control at 200 ppm in series [1] is not below 80%. The pest or weed control at 100 ppm with Uromyces viciae-Fabae was not below 80%. Further, the pest or weed control at 200 ppm in series [2] is not below 80%. Further, in series [3], the inhibition of growth at 20 ppm was not below 80%.

Regarding `CC1(C)CN=C(Cc2ccc(-c3noc(C(F)(F)F)n3)cc2)O1` [Compound 1.10, 3-[4-[(5,5-dimethyl-4H-oxazol-2-yl)methyl]phenyl]-5-(trifluoromethyl)-1,2,4-oxadiazole], the pest or weed control at 200 ppm (in series [1]; in the series on Phakopsora pachyrhizi; in series [2]) was not below 80% each time. Moreover, in the series on Uromyces viciae-Fabae, the pest or weed control at 100 ppm was not below 80%. Also, the inhibition of growth at 20 ppm in series [3] is not below 80%.

`COc1ccc(-c2cn(Cc3ccc(-c4noc(C(F)(F)F)n4)cc3)nn2)cc1` [Compound 1.12, 3-[4-[[4-(4-methoxyphenyl)triazol-1-yl]methyl]phenyl]-5-(trifluoromethyl)-1,2,4-oxadiazole] returned a melting point of 187.7 to 196.2 °C. Besides, in the series with Uromyces viciae-Fabae, the pest or weed control at 100 ppm was not below 80%. For the same compound, the pest or weed control at 200 ppm in series [2] was not below 80%.

Regarding `Fc1ccc(-c2cn(Cc3ccc(-c4noc(C(F)(F)F)n4)cc3)nn2)cc1` [Compound 1.13, 3-[4-[[4-(4-fluorophenyl)triazol-1-yl]methyl]phenyl]-5-(trifluoromethyl)-1,2,4-oxadiazole], the melting point fell in the range of 185.3 to 189 °C. In the series on Uromyces viciae-Fabae, the pest or weed control at 100 ppm is not below 80%.

Regarding `Cc1ccc(-c2cn(Cc3ccc(-c4noc(C(F)(F)F)n4)cc3)nn2)cc1` [Compound 1.14, 3-[4-[[4-(p-tolyl)triazol-1-yl]methyl]phenyl]-5-(trifluoromethyl)-1,2,4-oxadiazole], the melting point was 200.6 to 204.2 °C. In the series with Uromyces viciae-Fabae, the pest or weed control at 100 ppm is not below 80%.

Consider `Cc1cc(C(F)(F)F)nn1Cc1ccc(-c2noc(C(F)(F)F)n2)cc1` [Compound 1.20, 3-[4-[[5-methyl-3-(trifluoromethyl)pyrazol-1-yl]methyl]phenyl]-5-(trifluoromethyl)-1,2,4-oxadiazole], for which, in the series on Uromyces viciae-Fabae, the pest or weed control at 100 ppm was not below 80%. Moreover, the pest or weed control at 200 ppm in the series on Phakopsora pachyrhizi was not below 80%. Further, in series [3], the inhibition of growth at 20 ppm is not below 80%.

For `COC(=O)c1cn(Cc2ccc(-c3noc(C(F)(F)F)n3)cc2)nn1` [Compound 1.270, methyl 1-[[4-[5-(trifluoromethyl)-1,2,4-oxadiazol-3-yl]phenyl]methyl]triazole-4-carboxylate], the melting point lay in the range of 154 to 156 °C. In addition, the pest or weed control at 200 ppm in series [1] is not below 80%. Moreover, the pest or weed control at 200 ppm in the series with Phakopsora pachyrhizi was not below 80%. Also, the pest or weed control at 200 ppm in series [2] was not below 80%. Further, the inhibition of growth at 20 ppm in series [3] is not below 80%.

Compound `O=Cc1cnn(Cc2ccc(-c3noc(C(F)(F)F)n3)cc2)c1` [Compound 1.273, 1-[[4-[5-(trifluoromethyl)-1,2,4-oxadiazol-3-yl]phenyl]methyl]pyrazole-4-carbaldehyde] returned a melting point of 91 to 96 °C. Besides, the pest or weed control at 200 ppm in series [1] is not below 80%. Further, the pest or weed control at 200 ppm in the series on Phakopsora pachyrhizi was not below 80%. The pest or weed control at 200 ppm in series [2] is not below 80%. For the same compound, the inhibition of growth at 20 ppm in series [3] is not below 80%.

For the compound `CCNC(=O)c1cn(Cc2ccc(-c3noc(C(F)(F)F)n3)cc2)nn1` [Compound 1.274, N-ethyl-1-[[4-(5-(trifluoromethyl)-1,2,4-oxadiazol-3-yl]phenyl]methyl]triazole-4-carboxamide], the melting point lay within 193 to 195 °C. In series [1], the pest or weed control at 200 ppm is not below 80%. For the same compound, in the series on Phakopsora pachyrhizi, the pest or weed control at 200 ppm is not below 80%. In addition, in series [2], the pest or weed control at 200 ppm is not below 80%. Further, the inhibition of growth at 20 ppm in series [3] is not below 80%.

For `CON(C)C(=O)c1cn(Cc2ccc(-c3noc(C(F)(F)F)n3)cc2)nn1` [Compound 1.275, N-methoxy-N-methyl-1-[[4-[5-(trifluoromethyl)-1,2,4-oxadiazol-3-yl]phenyl]methyl]triazole-4-carboxamide], the melting point lay within 135 to 137 °C. Further, the pest or weed control at 200 ppm in series [1] is not below 80%. Besides, in the series with Phakopsora pachyrhizi, the pest or weed control at 200 ppm was not below 80%. Also, the pest or weed control at 200 ppm in series [2] was not below 80%. Besides, in series [3], the inhibition of growth at 20 ppm is not below 80%.

On to `CONC(=O)c1cn(Cc2ccc(-c3noc(C(F)(F)F)n3)cc2)nn1` [Compound 1.277, N-methoxy-1-[[4-[5-(trifluoromethyl)-1,2,4-oxadiazol-3-yl]phenyl]methyl]triazole-4-carboxamide], for which the melting point was in the range of 198 to 200 °C. Also, in series [1], the pest or weed control at 200 ppm is not below 80%. Moreover, the pest or weed control at 200 ppm with Phakopsora pachyrhizi was not below 80%. For the same compound, in series [2], the pest or weed control at 200 ppm is not below 80%. Also, in series [3], the inhibition of growth at 20 ppm was not below 80%.

In turn, `COC(=O)c1cnnn1Cc1ccc(-c2noc(C(F)(F)F)n2)cc1` [Compound 1.279, methyl 3-[[4-[5-(trifluoromethyl)-1,2,4-oxadiazol-3-yl]phenyl]methyl]triazole-4-carboxylate] returned a melting point of 103 to 107 °C. For the same compound, the pest or weed control at 200 ppm in series [1] is not below 80%. Also, in the series with Phakopsora pachyrhizi, the pest or weed control at 200 ppm was not below 80%. Further, the pest or weed control at 200 ppm in series [2] was not below 80%. For the same compound, in series [3], the inhibition of growth at 20 ppm was not below 80%.

On to `CN(C)C(=O)c1cn(Cc2ccc(-c3noc(C(F)(F)F)n3)cc2)nn1` [Compound 1.280, N,N-dimethyl-1-[[4-[5-(trifluoromethyl)-1,2,4-oxadiazol-3-yl]phenyl]methyl]triazole-4-carboxamide], for which the melting point was 168 to 170 °C. In addition, in series [1], the pest or weed control at 200 ppm was not below 80%. Moreover, the pest or weed control at 200 ppm in the series with Phakopsora pachyrhizi was not below 80%. In addition, in series [2], the pest or weed control at 200 ppm is not below 80%. In addition, in series [3], the inhibition of growth at 20 ppm was not below 80%.

`O=C(Nc1ccncc1)c1cn(Cc2ccc(-c3noc(C(F)(F)F)n3)cc2)nn1` [Compound 1.283, N-(4-pyridyl)-1-[[4-[5-(trifluoromethyl)-1,2,4-oxadiazol-3-yl]phenyl]methyl]triazole-4-carboxamide] returned a melting point of 204 to 206 °C. The pest or weed control at 200 ppm in series [1] is not below 80%. The pest or weed control at 200 ppm with Phakopsora pachyrhizi is not below 80%. Besides, the pest or weed control at 200 ppm in series [2] is not below 80%. In addition, in series [3], the inhibition of growth at 20 ppm was not below 80%.

With `C#CCON=Cc1cnn(Cc2ccc(-c3noc(C(F)(F)F)n3)cc2)c1` [Compound 1.290, N-prop-2-ynoxy-1-[1-[[4-[5-(trifluoromethyl)-1,2,4-oxadiazol-3-yl]phenyl]methyl]pyrazol-4-yl]methanimine], the melting point was 57 to 63 °C. Also, the pest or weed control at 200 ppm in series [1] was not below 80%. Also, the pest or weed control at 200 ppm in the series on Phakopsora pachyrhizi was not below 80%. Also, in series [2], the pest or weed control at 200 ppm was not below 80%. Besides, the inhibition of growth at 20 ppm in series [3] was not below 80%.

For the compound `CS(=O)(=O)N1CCN(Cc2ccc(-c3noc(C(F)(F)F)n3)cc2)CC1` [Compound 1.305, 3-[4-[(4-methylsulfonyl-piperazin-1-yl)methyl]phenyl]-5-(trifluoromethyl)-1,2,4-oxadiazole], the melting point fell in the range of 111.1 to 114.9 °C. The pest or weed control at 200 ppm in series [1] was not below 80%. Also, in the series with Phakopsora pachyrhizi, the pest or weed control at 200 ppm was not below 80%. The pest or weed control at 200 ppm in series [2] is not below 80%. Further, the inhibition of growth at 20 ppm in series [3] is not below 80%.

The values are drawn from US10798941B2, “Microbiocidal oxadiazole derivatives” (SYNGENTA PARTICIPATIONS AG, priority 2016, dated 2020).
